Assay results: patent publication US10570157B2, “Cyclic diarylboron derivatives as NLRP3 inflammasome inhibitors” (The University of Manchester, priority 2015, dated 2020)

Tests used:
[1] = tested on: inflammasome / IL-1β release in THP1 cell line; assay: IL-1β release from LPS-primed, nigericin-activated THP1 cells (ELISA); format: cell-based, human; details: for potency in the screen of NBC molecules (effect on IL-1β release): 10 μM compound, 15 min before nigericin (20 μM, 1 h), LPS-primed THP1 cells, normalised to nigericin-induced IL-1β release
Experimental: Data are the mean±SD of at least 4 separate experiments.
To screen the compounds of the invention, the human monocytic THP1 cell line was used. Cells were primed with LPS (1 μg/ml, 4 h) and then treated with vehicle (0.5% DMSO) or NBC molecule of the invention (see compounds listed below) at 10 μM for 15 min before activation of the inflammasome and IL-1β release with nigericin (20 μM, 1 h). The NBC molecule was present throughout nigericin stimulation. The effects of the molecules on IL-1β release were normalised to nigericin-induced IL-1β release in the absence of any inhibitor (FIGS. 1-3).

SMILES | melting point | IC50 ([1]; Homo sapiens, THP-1, THP1 cells, LPS primed, nigericin stimulated, FIG. 3) [nM] | potency in the screen of NBC molecules (effect on IL-1β release) [1]
CC(=O)C1=C(C(Cl)(Cl)Cl)N[B-](c2ccccc2)(c2ccccc2)[O+]=C1N [compound 14, (Z)-2-Acetyl-3-amino-4,4,4-trichlorobut-2-enamide diphenylboron] | – | 500 | most potent
CC(=O)C1=C(C(Cl)(Cl)Cl)N[B-](c2ccccc2)(c2ccccc2)[O+]=C1NCc1ccc2ccc3cccc4ccc1c2c34 | 167 to 169 °C (dec.) | – | –
NC(=O)C1=C(C(Cl)(Cl)Cl)N[B-](c2ccccc2)(c2ccccc2)[O+]=C1N [compound 42, 6-Amino-5-carbamoyl-2,2-diphenyl-4-(trichloromethyl)-2,3-dihydro-1,3,2-oxazaborinin-1-ium-2-uide] | – | – | most potent
CC1=[O+][B-](c2ccccc2)(c2ccccc2)NC(C(Cl)(Cl)Cl)=C1C(=O)OC(C)(C)C [compound 41, 5-(tert-Butoxycarbonyl)-2,2-di phenyl-6-methyl-4-(trichloromethyl)-2,3-dihydro-1,3,2-oxazaborinin-1-ium-2-uide] | 147 to 149 °C | – | –

More lines, main results first:

melting point | IC50 ([1]; Homo sapiens, THP-1, THP1 cells, LPS primed, nigericin stimulated, FIG. 3) [nM] | SMILES | potency in the screen of NBC molecules (effect on IL-1β release) [1]
53 to 54 °C | – | CC(=O)C1=C(C(Cl)(Cl)Cl)N[B-](c2ccccc2)(c2ccccc2)[O+]=C1NC1CCCCC1 [compound 48, 5-Acetyl-6-(cyclohexylamino)-2,2-diphenyl-4-(trichloromethyl)-2,3-dihydro-1,3,2-oxazaborinin-1-ium-2-uide] | most potent
145 to 148 °C (dec.) | – | CC(=O)C1=C(C(Cl)(Cl)Cl)N[B-](c2ccc(C)cc2)(c2ccc(C)cc2)[O+]=C1N [compound 57, 5-Acetyl-6-amino-2,2-bis(p-tolyl)-4-(trichloromethyl)-2,3-dihydro-1,3,2-oxazaborinin-1-ium-2-uide] | –
141 to 143 °C | – | CC(=O)C1=C(C(Cl)(Cl)Cl)N[B-](c2ccccc2)(c2ccc(C)cc2)[O+]=C1N (stereo not drawn) [compound 59, 5-Acetyl-6-amino-2-(phenyl)-2-(p-tolyl)-4-(trichloromethyl)-2,3-dihydro-1,3,2-oxazaborinin-1-ium-2-uide] | –
